Earlier results on five compounds are cited in patent US20170281701A1, “Formulation for the Nebulization of Oil Based Substances Suitable for Use with a Vibrating Mesh Nebulizer” (priority 2016, published 2017).

Molecules are shown by their SMILES.

The conditions of series [1]: smoked cannabis cigarette, of total available amount.
Assay in series [2]: not given
This is another data set of the same source.

For series [3] the following is noted: compared with Δ8-THC.
[4] abbreviates: oral dose of 20 mg in a chocolate cookie.

On to `CCCCCc1cc(O)c2c(c1)OC(C)(C)[C@@H]1CCC(C)=C[C@@H]21` [Δ^9-THC, Δ-9-tetrahydrocannabinol], for which the “absorption through the rectal route” value is reported as “not absorbed”. In addition, the “maximum of THC content in a cannabis cigarette absorbed or delivered to the systemic circulation” value in series [1] is recorded as 25-27%. In series [2] (setting [4]), the “absorption (description)” value is “slow and unreliable”; the systemic availability was 4-12%.
Take `CCCCCc1cc(O)c2c(c1)OC(C)(C)c1ccc(C)cc1-2` [CBN, cannabinol]: in series [3], the “permeability through the skin relative to Δ8-THC” value is reported as 10 fold.
Consider `C=C(C)[C@@H]1CCC(C)=C[C@H]1c1c(O)cc(CCCCC)cc1O` [CBD, cannabidiol], for which the “permeability through the skin relative to Δ8-THC” value in series [3] is on record as 10 fold.
In the case of `CCCCCc1cc(OC(=O)CCC(=O)O)c2c(c1)OC(C)(C)[C@@H]1CCC(C)=C[C@@H]21` [Δ^9-THC-hemisuccinate], the “absorption through the rectal route” value is “is absorbed”.
Regarding `CCCCCc1cc(O)c2c(c1)OC(C)(C)[C@@H]1CCC(C)=C[C@@H]21` [dronabinol], the “administered dose entering the systemic circulation” value in series [2] (orally administered, extensive first-pass metabolism) is given as 10-20%.
